SMILES strings stand for the structures. Where only a bound is given, the exact number is not on record here.

Test [1] concerns angiogenesis induced by basic fibroblast growth factor (bFGF). To be noted: cited from earlier work.
The test system of test [2] is corneal angiogenesis induced by vascular endothelial growth factor (VEGF). To be noted: cited from earlier work.
Test [3] relates to human vascular endothelial cells (HUVECS). In words: Endothelial cell proliferation assay ([3H]-thymidine incorporation). The test is classed as cell-based. The conditions noted are these: HUVEC, 20% serum, preliminary IC50 data, read-out: Inhibition of Endothelial Cell Proliferation (IC50 μM). For orientation: Uptake of a labelled nucleoside into DNA is a usual measure of proliferation.
Experimental: Endothelial Cell Proliferation Assay.
The human vascular endothelial cells (HUVECS) were cultured to peri-confluence (80%) in 20% serum and treated with thalidomide (standard) or its analog (40-400 μM). After 20 h, [^3H]-thymidine (2 μCi/ml) was added to the culture medium for 2-4 h. The [^3H]-thymidine incorporation was stopped with ice-cold PBS (3 washes) and the cells were incubated with cold 10% trichloroacetic acid (TCA) for 10 min at 4° C. The cells were further incubated with TCA at room temperature for 10 min and washed three times with PBS. The cells were solubilized overnight with 1N NaOH and neutralized with an equivalent amount of 1N HCl before radioactivity was determined. The anti-proliferative activity of thalidomide or its analog was computed as a percent inhibition of HUVECS mitogenic response to 20% serum (fetal calf serum).

For another test, the system named is angiogenesis. The conditions noted are these: oral; cited from earlier work.
The test system of another test is endothelial cells. The conditions noted are these: in vitro; cited from earlier work.

For the compound `O=C1CC[C@H](N2C(=O)c3ccccc3C2=O)C(=O)N1` (single isomer, unassigned) [S(−)-enantiomer of thalidomide], the “anti-angiogenic activity of enantiomers, bFGF-induced corneal neovascularization” value in test [1] (comparison of enantiomers) is recorded as “strongest anti-angiogenic activity”. The “anti-angiogenic activity of enantiomers, VEGF-induced corneal neovascularization” value in test [2] (comparison of enantiomers) was “strongest anti-angiogenic activity”.
In the case of `O=C1CCC(N2C(=O)c3ccccc3C2=O)C(=O)N1` (stereo not drawn) [Compound 1, thalidomide], the IC50 in test [3] came to 200 µM. Moreover, the “effect on angiogenesis, bFGF induced corneal micropocket” value in test [1] (rabbit) is “inhibitory effects”. Also, the “effect on angiogenesis, orally in mice models” value with angiogenesis was “inhibitory effects”. Moreover, the “endothelial cell proliferation in treated cultures” value in the test on endothelial cells is recorded as “significant decrease”. The “inhibition of corneal angiogenesis” value in test [2] (rabbits, pellet with 500 or 750 ng VEGF, two daily feedings of 200 mg/kg, after the 5th day of treatment, P<0.0001) is recorded as “statistically significant inhibition”.
Take `O=C1c2ccccc2C(=O)N1c1ccc2c(c1)CCC2` [Compound 5]: in test [3], the IC50 turned out to be 85 µM.
With `O=C1c2ccccc2C(=O)N1C1CCCc2ccccc21` (stereo not drawn) [Compound 7], the IC50 in test [3] was more than 400 µM.
The same measure, in the same setting: then `CCC(c1cccc2ccccc12)N1C(=O)c2ccccc2C1=O` (stereo not drawn) [Compound 29], with 45 µM; and `CCCCCCC(c1ccc(OC)c(OC)c1)N1C(=O)c2ccccc2C1=O` (stereo not drawn) [Compound 32], with less than 38.5 µM; and `CCOc1ccccc1N1C(=O)c2ccccc2C1=O` [Compound 50], with 110 µM.
Regarding `Cc1cc(N)ccc1N1C(=O)c2ccc(Cl)cc2C1=O` [Compound 51], the IC50 in test [3] worked out at 350 µM.
Same read-out and setting: in the case of `O=C1CC(N2C(=O)c3ccccc3C2=O)CC(=O)O1` [Compound 52] it was more than 400 µM; in that of `O=C1NC(=O)c2c1cccc2[N+](=O)[O-]` [Compound 53], more than 400 µM.

The record behind these values is patent US7893071B2, “Synthesis and evaluation of novel phthalimide mimics as anti-angiogenic” (University of Virginia Patent Foundation, priority 2001, dated 2011).
